Measured values: patent US20050037446A1, “Agents that recognize src when phosphorylated at serine 17” (priority 2001, published 2005)

Test system: Ras
Assay: Ras activation affinity assay in SYF and Src++ cells
Assay type: cell-based, mouse
Description: Endogenous GTP-loaded Ras was determined using a Ras activation affinity assay as follows. Hek293 cells were grown, stimulated, and lysed as described above. Activated Ras was assayed as previously described (Schmitt and Stork, Mol. Cell. Biol. 21:3671-83, 2001). Briefly, equivalent amounts of lysates from stimulated cells were incubated with GST-Rafl-RBD (Ras-binding domain) as specified by the manufacturer (Upstate Biotechnology, Lake Placid, N.Y.). Proteins were eluted with 2×Laemmli buffer and applied to a 12% SDS polyacrylamide gel. Proteins were transferred to a PVDF membrane, blocked at room temperature for 1 hour in 5% milk and probed with either Ras or Flag antibody overnight at 4° C., followed by an HRP-conjugated anti-mouse secondary. Proteins were detected using enhanced chemiluminescence.
To determine which SFK was mediating these effects, cell lines derived from mouse embryo fibroblasts that lack SFKs, were used as described in Example 3. SYF and Srcd cells were transfected with Flag-Rap 1, and WT Src or pcDNA3 vector alone as described in Example 3. Cells were stimulated with isoproterenol or left untreated, and then cell lysates were examined for active GTP-loaded Rap1 (Flag-Rap1-GTP) as described in Examples 1 and 6. Isoproterenol's ability to activate Rap1 was absent in SYF cells, but was retained in Src^++ cells. […]

CC(C)NCC(O)c1ccc(O)c(O)c1 (centres unmarked) [isoproterenol]
Ras activation by agonist (SYF cells): absent | Ras activation by agonist (Src++ cells): retained
